Data on 5 compounds can be found in publication PMC5563080, “The High-Affinity Interaction between ORC and DNA that Is Required for Replication Licensing Is Inhibited by 2-Arylquinolin-4-Amines” (Cell Chemical Biology, 2017).

This assay deals with U2OS. In words: cells. Also on record: Inhibition of MCM4 chromatin loading (replication licensing) in synchronised U2OS cells, immunofluorescence high-content imaging. Conditions: Homo sapiens, 8 h, MCM4 DNA binding. The method, then: We used these changes to design a high-throughput assay for licensing inhibitors (Figure 1B). Human U2OS cells were released into S phase from a double-thymidine block (Figures S1A–S1C) and then treated with RO3306, a CDK1 inhibitor, to reversibly block them in G2 (Figure S1D). RO3306 was removed and cells were seeded into 384-well plates containing test compounds (Figure S1E). Eight hours later, when cells should have passed through mitosis and loaded MCM2–7, cells were fixed and immunostained for DNA-bound MCM4 and also treated with DAPI to stain total DNA (Figure S1F). Microscopic images of each treatment (Figures 1C and 1D) were taken on an InCell 1000 system, which returned values for MCM4 and DNA content for each of the cells identified. To avoid any confounding effects of RO3306 treatment, we then retested these 280 compounds using a low-throughput screen whereby cells were synchronized by mitotic shake-off prior to exposure with test compounds. This low-throughput assay also has the advantage of removing cells that suffer non-specific inhibition by test compounds, as only metabolically active cells can re-adhere to the plates. Sixteen compounds produced a reproducible reduction (>60%) of DNA-bound MCM4 in this assay. These 16 compounds fell into eight discrete chemical families, which we named RL1 to RL8. After resynthesis and re-assay, we decided to take 12 of these 16 compounds forward for further study: RL1a, RL1b, RL2, RL3a, RL3b, RL4, RL5a–RL5e, and RL8. […] Microscopic images (6 fields / well) of each treatment were taken on an InCell 1000 system (GE healthcare) using a 20x objective. ActivityBase from ID Business Solutions was used for the data processing and analysis, returning values for Mcm4 and DNA content for each of the cells identified. Figure S6 details the plate maps used for the assay. A Quality Control plate was included for every three assay plates (Figure S6), where columns 1-12 were low control wells (+ R03306 + 1% DMSO) and columns 13-24 were high control well (+Media + 1% DMSO). The performance of the assay on each screening plate was evaluated using internal controls. The criteria for data acceptance of an assay plate were signal to background (mean Hi Control) / (mean Lo Control) >1.5; Z-prime (1 - (3 x Lo Control Standard Deviation + 3 x SD Hi Control Standard Deviation) / (mean Hi Control - mean Lo Control)) >0.3. The statistics from all assay plates and Quality Control plates were analysed. The screen performance indicators were: signal to background 2.4±0.53 and Z-prime 0.47±0.10.

A word on the IC50: it is the concentration needed to halve the response being measured. A low value points to greater potency.

Each structure is given as a SMILES string.

Compound `CN(C)CCNc1cc(-c2cccs2)nc2ccccc12` [RL5b] yielded an IC50 of 22 µM. This counts as double-digit micromolar. Take `CCN(CC)CCNc1nc(-c2cccc(Cl)c2)nc2ccccc12` [RL5d]: the IC50 was determined as 32 µM. Then `CN(C)CCNc1cc(-c2ccco2)nc2ccccc12` [RL5a], with 8 µM; and `CN(C)CCNc1nc(-c2ccncc2)nc2ccccc12` [RL5c], with 59 µM.

In the case of `Cc1c(C)n(-c2nc3ccccc3s2)c2ncnc(NCCN(C)C)c12` [RL5e], the IC50 came out at 7 µM.
